From US11072588B2, “Barbituric acid derivatives comprising cationic and lipophilic groups” (UNIVERSITETET I TROMSØ—NORGES ARKTISKE UNIVERSITET, priority 2017, dated 2021)
In brackets after ≈: the same amount, converted by molar mass. Read-outs that look alike come from different tables or passages of the source.

Experiments:
[1] = tested on: P. aeruginosa K34-7; test: MIC, multi-resistant clinical isolate; type: cell-based, Pseudomonas aeruginosa; details: for MIC: Pseudomonas aeruginosa, K347, read-out: Antimicrobial activity (MIC); for selectivity index (EC50/MIC): RBC EC50 / MIC, P. aeruginosa K34-7
Protocol: (§1) Working solutions of the test derivatives were prepared with up to 100% DMSO and stored at −20° C. If necessary, the solutions were heated to 40-80° C. before testing to facilitate complete dissolution. Double-distilled water was used in all dilutions prepared. […] A microdilution susceptibility test was used for MIC determination according to Clinical and Laboratory Standards Institute, “Methods for Dilution Antimicrobial Sisceptibility Tests for Bacteria That Graw Aerobically”, Approved Standard M07-A9, edition 2012, with modifications as described by Igumnova et al (Bioorg Med Chem, 2016, 24 (22), 5884-5894).
(§2) Briefly, the bacterial inoculum was adjusted to approximately 2.5-3×10^4 cells/mL in Mueller-Hinton broth (MHB, Difco Laboratories, USA), and incubated in a ratio of 1:1 with test derivatives in polystyrene 96-well flat-bottom microplates (NUNC, Roskilde, Denmark). Positive growth control (without test derivatives) and negative control (without bacteria) were included. The reference antibiotic was oxytetracycline hydrochloride (Sigma Aldrich, Saint Louis, Mo., USA). The microplates were incubated in an EnVision microplate reader (Perkin-Elmer, Turku, Finland) placed in an incubator set to 35° C. for 48 h. The MIC value was defined as the lowest concentration of derivative resulting in no bacterial growth as determined by OD600 measurement. All derivatives were tested in three parallels.
(§3) The MIC was determined as explained above with some exceptions; working solutions of test derivatives were prepared from concentrated DMSO stocks stored at room temperature, the density of the bacterial inoculum was increased 40× to 1-1.2×10^6 cells/mL, enterococci were incubated in Brain Heart Infusion broth (BHIB, Difco Laboratories, USA), the microplates were incubated for 24 h, and the derivatives were tested in four parallels.

[2] = tested on: P. aeruginosa 50692520; test: MIC, multi-resistant clinical isolate; type: cell-based, Pseudomonas aeruginosa; details: for MIC: Pseudomonas aeruginosa, read-out: Antimicrobial activity (MIC); for selectivity index (EC50/MIC): RBC EC50 / MIC
Protocol: as §1, §2, §3

[3] = tested on: P. aeruginosa K34-73; test: MIC, multi-resistant clinical isolate; type: cell-based, Pseudomonas aeruginosa; details: P. aeruginosa K34-73; for MIC: Pseudomonas aeruginosa, K3473, read-out: Antimicrobial activity (MIC); for selectivity index (EC50/MIC): RBC EC50 / MIC
Protocol: as §1, §2, §3

[4] = tested on: P. aeruginosa K44-24; test: MIC, multi-resistant clinical isolate; type: cell-based, Pseudomonas aeruginosa; details: for MIC: Pseudomonas aeruginosa, K4424, read-out: Antimicrobial activity (MIC); for selectivity index (EC50/MIC): RBC EC50 / MIC
Protocol: as §1, §2, §3

[5] = tested on: P. aeruginosa 50692172; test: MIC, multi-resistant clinical isolate; type: cell-based, Pseudomonas aeruginosa; details: for MIC: Pseudomonas aeruginosa, read-out: Antimicrobial activity (MIC); for selectivity index (EC50/MIC): RBC EC50 / MIC
Protocol: as §1, §2, §3

[6] = tested on: E. coli 50579417; test: MIC, multi-resistant clinical isolate; type: cell-based, Escherichia coli; details: for MIC: Escherichia coli, read-out: Antimicrobial activity (MIC); for selectivity index (EC50/MIC): RBC EC50 / MIC
Protocol: as §1, §2, §3

[7] = tested on: E. coli 50639799; test: MIC, multi-resistant clinical isolate; type: cell-based, Escherichia coli; details: for MIC: Escherichia coli, read-out: Antimicrobial activity (MIC); for selectivity index (EC50/MIC): RBC EC50 / MIC
Protocol: as §1, §2, §3

[8] = tested on: E. coli 50857972; test: MIC, multi-resistant clinical isolate; type: cell-based, Escherichia coli; details: for MIC: Escherichia coli, read-out: Antimicrobial activity (MIC); for selectivity index (EC50/MIC): RBC EC50 / MIC
Protocol: as §1, §2, §3

[9] = tested on: E. coli 50739822; test: MIC, multi-resistant clinical isolate; type: cell-based, Escherichia coli; details: for MIC: Escherichia coli, read-out: Antimicrobial activity (MIC); for selectivity index (EC50/MIC): RBC EC50 / MIC
Protocol: as §1, §2, §3

[10] = tested on: E. coli 50676002; test: MIC, multi-resistant clinical isolate; type: cell-based, Escherichia coli; details: E. coli 50676002; for MIC: Escherichia coli, read-out: Antimicrobial activity (MIC); for selectivity index (EC50/MIC): RBC EC50 / MIC
Protocol: as §1, §2, §3

[11] = tested on: K. pneumoniae K47-25; test: MIC, multi-resistant clinical isolate; type: cell-based, Klebsiella pneumoniae; details: K. pneumoniae K47-25, resistant to colistin; for MIC: Klebsiella pneumoniae, K4725, 24 h, read-out: Antimicrobial activity (MIC); for selectivity index (EC50/MIC): RBC EC50 / MIC
Protocol: as §1, §2, §3

[12] = tested on: K. pneumoniae 50667959; test: MIC, multi-resistant clinical isolate; type: cell-based, Klebsiella pneumoniae; details: for MIC: Klebsiella pneumoniae, read-out: Antimicrobial activity (MIC); for selectivity index (EC50/MIC): RBC EC50 / MIC
Protocol: as §1, §2, §3

[13] = tested on: K. pneumoniae K66-45; test: MIC, multi-resistant clinical isolate; type: cell-based, Klebsiella pneumoniae; details: for MIC: Klebsiella pneumoniae, K6645, read-out: Antimicrobial activity (MIC); for selectivity index (EC50/MIC): RBC EC50 / MIC, K. pneumoniae K66-45
Protocol: as §1, §2, §3

[14] = tested on: A. baumanii K63-58; test: MIC, multi-resistant clinical isolate; type: cell-based, Acinetobacter baumannii; details: A. baumanii K63-58, resistant to colistin; for MIC: Acinetobacter baumannii, K6358, 24 h, read-out: Antimicrobial activity (MIC); for selectivity index (EC50/MIC): RBC EC50 / MIC
[15] = tested on: panel of 30 multi-resistant clinical isolates of Gram-positive and Gram-negative bacteria; test: MIC screening, ranges over the panel of clinical isolates; type: cell-based
Protocol: as §1, §2, §3

[16] = tested on: human metastatic melanoma (A2058, ATCC CRL-11147) cells; test: Anti-cancer activity against A2058 cells; type: cell-based; details: A2058, read-out: Anti-cancer IC50
Method in brief: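 A2058 melanoma cells seeded at 2,000/well overnight, then exposed to a concentration range in serum-free MEM (gentamycin, NEAA, pyruvate, glutamine) for 24 h (cytotoxicity stated as after 72 h exposure). MTS-type tetrazolium reagent added for 1 h; absorbance at 485 nm; % survival versus medium and Triton X-100 controls.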

[17] = tested on: Corynebacterium glutamicum ATCC 13032; test: MIC assay, antibiotic susceptible reference strain; type: cell-based; details: Corynebacterium glutamicum, ATCC13032, read-out: Antimicrobial activity (MIC) C. g
Method in brief: (§4)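 Broth microdilution followed CLSI M07-A9 with modifications: inoculum ~2.5-3×10^4 cells/mL in Mueller-Hinton broth, mixed 1:1 with test derivative, incubated 48 h at 35 °C. MIC was the lowest concentration giving no growth by OD600, tested in three parallels, with oxytetracycline as reference antibiotic.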

[18] = tested on: Escherichia coli ATCC 25922; test: MIC assay, antibiotic susceptible reference strain; type: cell-based; details: Escherichia coli, ATCC25922, read-out: Antimicrobial activity (MIC) E. c
Method in brief: as §4

[19] = tested on: Pseudomonas aeruginosa PA01, DSM 19880 (ATCC 15692); test: MIC assay, antibiotic susceptible reference strain; type: cell-based; details: Pseudomonas aeruginosa, read-out: Antimicrobial activity (MIC) P. a
Method in brief: as §4

[20] = tested on: Staphylococcus aureus ATCC 9144; test: MIC assay, antibiotic susceptible reference strain; type: cell-based; details: Staphylococcus aureus, ATCC9144, read-out: Antimicrobial activity (MIC) S. a
Method in brief: as §4

SMILES | MIC [1] [µg/mL] | selectivity index (EC50/MIC) [1] | MIC [2] [µg/mL] | selectivity index (EC50/MIC) [2] | MIC [3] [µg/mL] | selectivity index (EC50/MIC) [3] | MIC [4] [µg/mL] | selectivity index (EC50/MIC) [4] | MIC [5] [µg/mL] | selectivity index (EC50/MIC) [5] | MIC [6] [µg/mL] | selectivity index (EC50/MIC) [6] | MIC [7] [µg/mL] | selectivity index (EC50/MIC) [7] | MIC [8] [µg/mL] | selectivity index (EC50/MIC) [8] | MIC [9] [µg/mL] | selectivity index (EC50/MIC) [9] | MIC [10] [µg/mL] | selectivity index (EC50/MIC) [10] | further results
N=C(N)NCCCCN1C(=O)N(CCCCNC(=N)N)C(=O)C(Cc2ccc(F)c3ccccc23)(Cc2ccc(F)c3ccccc23)C1=O [8(v), 1,1′-(4,4′-(5,5-bis((4-fluoronaphthalen-1-yl)methyl)-2,4,6-trioxodihydropyrimidine-1,3(2H,4H)-diyl)bis(butane-4,1-diyl))diguanidine] | 16 (≈ 23.9 µM) | (6) | 16 (≈ 23.9 µM) | (6) | 8 (≈ 11.9 µM) | (11) | 16 (≈ 23.9 µM) | (6) | 16 (≈ 23.9 µM) | (6) | 8 (≈ 11.9 µM) | (11) | 4 (≈ 5.96 µM) | (22) | 4 (≈ 5.96 µM) | (22) | 8 (≈ 11.9 µM) | (11) | 4 (≈ 5.96 µM) | (22) | MIC [11]: 8 µg/mL (≈ 11.9 µM); selectivity index (EC50/MIC) [11]: (11); MIC [12]: 4 µg/mL (≈ 5.96 µM); selectivity index (EC50/MIC) [12]: (22); MIC [13]: 4 µg/mL (≈ 5.96 µM); selectivity index (EC50/MIC) [13]: (22); MIC [14]: 8 µg/mL (≈ 11.9 µM); selectivity index (EC50/MIC) [14]: (11); MIC ([15]; read-out: MIC values against all the 30 multi-resistant clinical isolates): 2 to 16 µg/mL (≈ 2.98 to 23.9 µM); IC50 [16]: 8 µg/mL (≈ 11.9 µM); MIC [17]: 0.25 µg/mL (≈ 0.373 µM); MIC [18]: 1 µg/mL (≈ 1.49 µM); MIC [19]: 4 µg/mL (≈ 5.96 µM); MIC [20]: 1 µg/mL (≈ 1.49 µM)
CC(C)(C)c1ccc(CC2(Cc3ccc(C(C)(C)C)cc3)C(=O)N(CCCCNC(=N)N)C(=O)N(CCCCNC(=N)N)C2=O)cc1 [Compound 8(i), 1,1′-(4,4′-(5,5-bis(4-tert-butylbenzyl)-2,4,6-trioxodihydropyrimidine-1,3(2H,4H)-diyl)bis(butane-4,1-diyl))diguanidine] | 16 (≈ 24.7 µM) | (5) | 16 (≈ 24.7 µM) | (5) | 8 (≈ 12.4 µM) | (10) | 16 (≈ 24.7 µM) | (5) | 16 (≈ 24.7 µM) | (5) | 4 (≈ 6.18 µM) | (19) | 4 (≈ 6.18 µM) | (19) | 4 (≈ 6.18 µM) | (19) | 4 (≈ 6.18 µM) | (19) | 4 (≈ 6.18 µM) | (19) | MIC [11]: 4 µg/mL (≈ 6.18 µM); selectivity index (EC50/MIC) [11]: (19); MIC [12]: 16 µg/mL (≈ 24.7 µM); selectivity index (EC50/MIC) [12]: (5); MIC [13]: 4 µg/mL (≈ 6.18 µM); selectivity index (EC50/MIC) [13]: (19); MIC [14]: 4 µg/mL (≈ 6.18 µM); selectivity index (EC50/MIC) [14]: (19); MIC ([15]; Pseudomonas aeruginosa, read-out: MIC against P. aeruginosa): 8 to 16 µg/mL (≈ 12.4 to 24.7 µM); fold improvement in antimicrobial activity compared to the analogous amine barbiturate 7(i) ([15]; multi-resistant clinical isolates): up to 4 fold; MIC ([15]; read-out: MIC values against S. aurues, E. faecium and E. coli): 2 to 4 µg/mL (≈ 3.09 to 6.18 µM); MIC ([15]; read-out: MIC values against the Gram-negative multi-resistant clinical isolates of K. pneumoniae and A. baumanii): 4 to 8 µg/mL (≈ 6.18 to 12.4 µM); IC50 [16]: 2 µg/mL (≈ 3.09 µM); MIC [17]: < 0.13 µg/mL; MIC [18]: 2 µg/mL (≈ 3.09 µM); MIC [19]: 4 µg/mL (≈ 6.18 µM); MIC [20]: 1 µg/mL (≈ 1.55 µM)
